# How the values were obtained:
# Experiment in all cases: relative viability (nuclei count vs DMSO), 5 days (fraction); higher = more cells survive
# ABC-1 = system: ABC-1
# Procedure, shortened: (§1)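 Lung cancer cell lines were seeded in 1536-well plates and dosed by pin tool the next day, with either a single drug or a fixed anchor-drug dose combined with five library-drug doses (not always all listed) spaced in √10 steps. Five days later, one step fixed the cells and stained their nuclei (final 0.05% Triton X-100, 1% formaldehyde, 1 ug/ml Hoechst), and nuclei were counted on 4× images. Relative viability is the nuclei count in treated wells divided by the count in vehicle wells, and each value is the median of duplicate plates.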
# BEN = system: BEN
# Procedure, shortened: as §1
# CAL-12T = system: CAL-12T
# Procedure, shortened: as §1
# EKVX = system: EKVX
# Procedure, shortened: as §1
# EMC-BAC-2 = system: EMC-BAC-2
# Procedure, shortened: as §1
# H3255 = system: H3255
# Procedure, shortened: as §1
# LC-2-ad = system: LC-2-ad
# Procedure, shortened: as §1
# LU99A = system: LU99A
# Procedure, shortened: as §1
# NCI-H1355 = system: NCI-H1355
# Procedure, shortened: as §1
# NCI-H1650 = system: NCI-H1650
# Procedure, shortened: as §1
# NCI-H1734 = system: NCI-H1734
# Procedure, shortened: as §1
# NCI-H1792 = system: NCI-H1792
# Procedure, shortened: as §1
# NCI-H1993 = system: NCI-H1993
# Procedure, shortened: as §1
# NCI-H2009 = system: NCI-H2009
# Procedure, shortened: as §1
# NCI-H2085 = system: NCI-H2085
# Procedure, shortened: as §1
# NCI-H2087 = system: NCI-H2087
# Procedure, shortened: as §1
# NCI-H2342 = system: NCI-H2342
# Procedure, shortened: as §1
# NCI-H520 = system: NCI-H520
# Procedure, shortened: as §1
# NCI-H522 = system: NCI-H522
# Procedure, shortened: as §1
# NCI-H661 = system: NCI-H661
# Procedure, shortened: as §1
# NCI-H838 = system: NCI-H838
# Procedure, shortened: as §1
# SK-LU-1 = system: SK-LU-1
# Procedure, shortened: as §1
# SK-MES-1 = system: SK-MES-1
# Procedure, shortened: as §1
# SW 1573 = system: SW 1573
# Procedure, shortened: as §1
# UMC-11 = system: UMC-11
# Procedure, shortened: as §1
compound,measurement,setting,value
Nc1cccc2c1CN(C1CCC(=O)NC1=O)C2=O (stereo unspecified) [Lenalidomide] + Cc1nc(Nc2ncc(C(=O)Nc3c(C)cccc3Cl)s2)cc(N2CCN(CCO)CC2)n1 [Dasatinib] (partner 0.075 µM),relative viability,ABC-1; first compound 0.253 µM,0.591
same,relative viability,ABC-1; first compound 0.8 µM,0.482
same,relative viability,ABC-1; first compound 2.53 µM,0.602
same,relative viability,ABC-1; first compound 8 µM,0.55
same,relative viability,BEN; first compound 0.253 µM,0.385
same,relative viability,BEN; first compound 0.8 µM,0.258
same,relative viability,BEN; first compound 2.53 µM,0.293
same,relative viability,BEN; first compound 8 µM,0.241
same,relative viability,CAL-12T; first compound 0.253 µM,0.262
same,relative viability,CAL-12T; first compound 0.8 µM,0.345
same,relative viability,CAL-12T; first compound 2.53 µM,0.397
same,relative viability,CAL-12T; first compound 8 µM,0.368
same,relative viability,EKVX; first compound 0.253 µM,0.613
same,relative viability,EKVX; first compound 0.8 µM,0.495
same,relative viability,EKVX; first compound 2.53 µM,0.575
same,relative viability,EKVX; first compound 8 µM,0.499
same,relative viability,EMC-BAC-2; first compound 0.253 µM,0.319
same,relative viability,EMC-BAC-2; first compound 0.8 µM,0.28
same,relative viability,EMC-BAC-2; first compound 2.53 µM,0.33
same,relative viability,EMC-BAC-2; first compound 8 µM,0.256
same,relative viability,H3255; first compound 0.253 µM,0.365
same,relative viability,H3255; first compound 0.8 µM,0.32
same,relative viability,H3255; first compound 2.53 µM,0.34
same,relative viability,H3255; first compound 8 µM,0.301
same,relative viability,LC-2-ad; first compound 0.253 µM,0.49
same,relative viability,LC-2-ad; first compound 2.53 µM,0.727
same,relative viability,LC-2-ad; first compound 8 µM,0.395
same,relative viability,LU99A; first compound 0.253 µM,0.473
same,relative viability,LU99A; first compound 0.8 µM,0.471
same,relative viability,LU99A; first compound 2.53 µM,0.54
same,relative viability,LU99A; first compound 8 µM,0.308
same,relative viability,NCI-H1355; first compound 0.253 µM,0.701
same,relative viability,NCI-H1355; first compound 2.53 µM,0.744
same,relative viability,NCI-H1355; first compound 8 µM,0.403
same,relative viability,NCI-H1650; first compound 0.8 µM,0.241
same,relative viability,NCI-H1650; first compound 2.53 µM,0.316
same,relative viability,NCI-H1650; first compound 8 µM,0.303
same,relative viability,NCI-H1734; first compound 0.253 µM,0.506
same,relative viability,NCI-H1734; first compound 0.8 µM,0.474
same,relative viability,NCI-H1734; first compound 2.53 µM,0.562
same,relative viability,NCI-H1734; first compound 8 µM,0.4
same,relative viability,NCI-H1792; first compound 0.253 µM,0.8
same,relative viability,NCI-H1792; first compound 0.8 µM,0.69
same,relative viability,NCI-H1792; first compound 2.53 µM,0.893
same,relative viability,NCI-H1792; first compound 8 µM,0.865
same,relative viability,NCI-H1993; first compound 0.253 µM,0.498
same,relative viability,NCI-H1993; first compound 0.8 µM,0.583
same,relative viability,NCI-H1993; first compound 2.53 µM,0.609
same,relative viability,NCI-H1993; first compound 8 µM,0.443
same,relative viability,NCI-H2009; first compound 0.253 µM,0.326
same,relative viability,NCI-H2009; first compound 0.8 µM,0.299
same,relative viability,NCI-H2009; first compound 2.53 µM,0.351
same,relative viability,NCI-H2009; first compound 8 µM,0.284
same,relative viability,NCI-H2085; first compound 0.253 µM,0.253
same,relative viability,NCI-H2085; first compound 0.8 µM,0.259
same,relative viability,NCI-H2085; first compound 2.53 µM,0.243
same,relative viability,NCI-H2085; first compound 8 µM,0.214
same,relative viability,NCI-H2087; first compound 0.253 µM,0.865
same,relative viability,NCI-H2087; first compound 0.8 µM,0.851
same,relative viability,NCI-H2087; first compound 2.53 µM,0.928
same,relative viability,NCI-H2087; first compound 8 µM,0.829
same,relative viability,NCI-H2342; first compound 0.253 µM,0.312
same,relative viability,NCI-H2342; first compound 0.8 µM,0.305
same,relative viability,NCI-H2342; first compound 2.53 µM,0.322
same,relative viability,NCI-H2342; first compound 8 µM,0.3
same,relative viability,NCI-H520; first compound 0.253 µM,0.188
same,relative viability,NCI-H520; first compound 0.8 µM,0.192
same,relative viability,NCI-H520; first compound 2.53 µM,0.235
same,relative viability,NCI-H520; first compound 8 µM,0.159
same,relative viability,NCI-H522; first compound 0.253 µM,1
same,relative viability,NCI-H522; first compound 2.53 µM,0.749
same,relative viability,NCI-H522; first compound 8 µM,0.678
same,relative viability,NCI-H661; first compound 0.253 µM,0.934
same,relative viability,NCI-H661; first compound 0.8 µM,0.854
same,relative viability,NCI-H661; first compound 2.53 µM,0.918
same,relative viability,NCI-H661; first compound 8 µM,0.86
same,relative viability,NCI-H838; first compound 0.253 µM,0.368
same,relative viability,NCI-H838; first compound 0.8 µM,0.301
same,relative viability,NCI-H838; first compound 2.53 µM,0.302
same,relative viability,NCI-H838; first compound 8 µM,0.252
same,relative viability,SK-LU-1; first compound 0.253 µM,0.175
same,relative viability,SK-LU-1; first compound 0.8 µM,0.206
same,relative viability,SK-LU-1; first compound 2.53 µM,0.178
same,relative viability,SK-LU-1; first compound 8 µM,0.143
same,relative viability,SK-MES-1; first compound 0.253 µM,0.421
same,relative viability,SK-MES-1; first compound 0.8 µM,0.422
same,relative viability,SK-MES-1; first compound 2.53 µM,0.499
same,relative viability,SK-MES-1; first compound 8 µM,0.413
same,relative viability,SW 1573; first compound 0.253 µM,0.637
same,relative viability,SW 1573; first compound 0.8 µM,0.547
same,relative viability,SW 1573; first compound 2.53 µM,0.455
same,relative viability,SW 1573; first compound 8 µM,0.392
same,relative viability,UMC-11; first compound 0.253 µM,0.452
same,relative viability,UMC-11; first compound 0.8 µM,0.456
same,relative viability,UMC-11; first compound 2.53 µM,0.542
same,relative viability,UMC-11; first compound 8 µM,0.43
